In patent publication US11524051B2, “Methods of treating fungal infections” (United States of America as represented by the Secretary of …, priority 2017, dated 2022):
Square brackets hold non-standard residues; d marks the D form. Ends that are not written are not given here. Peptide text beside a SMILES is read from it.

Legend:
human red blood cells = assay: Hemolysis assay; format: cell-based; conditions: 1 hour at 37° C., versus untreated controls
Procedure: The hemolytic activity of BmKn2, dBmKn2, Kn2-7, dKn2-7, and melittin was assessed using human red blood cells (RBCs). The RBCs were prepared from human whole blood (BioreclamationIVT, Westbury, N.Y., USA) according to a previous report (Evans et al, J. Vis. Exp. (73), 50166, doi:10.3791/50166 (2013)). In brief, human whole blood was centrifuged, and the RBCs were washed with PBS 3-4 times and then diluted 1:20 of the original volume in PBS. Peptides at various concentrations from 0-400 μg/mL in PBS were mixed with an equal volume of the diluted RBCs in a 96-well microtiter plate and allowed to incubate for 1 hour at 37° C. The plate was then centrifuged at 500 g for 5 minutes and 100 μL of the supernatant was transferred to a 96-well, transparent, flat-bottomed plate. Sample absorbances were read at 490 nm using a BioTek Synergy HT plate reader (BioTek, Winooski, Vt.). PBS was used as a negative control (blank), and 1% Triton X-100 was used as a positive control for 100% hemolysis. The percent hemolysis for the unknown samples was calculated according to the following equation: […]

[1] = Stability of peptides in human serum (LC-MS); format: in vitro ADME; conditions: 37° C.; for remaining at 24 h, 50 μg/mL: 25% human serum (v/v), pH 7, 25% human serum in RPMI 1640, after 24 hours, read-out: peptide remaining, percent of t0; for reduction of peptide amount: 100% culture medium (RPMI 1640), 24 hours, 50 μg/mL
Procedure: The stability of Kn2-7 and dKn2-7 (50 μg/mL) were studied in 25% human serum (v/v) (BioreclamationIVT, Westbury, N.Y., USA) in 1640 RPMI media (made with 165 mM MOPS, pH 7.0) or in 100% 1640 RPMI medium at 37° C. (H. Jenssen, S. I. Aspmo, Serum stability of peptides, Peptide-Based Drug Design (2008) 177-186.) At predetermined time points, 100 μL aliquots of each solution was removed and thoroughly mixed with 200 μL of 96% ethanol. This was incubated on ice for 15 minutes followed by centrifugation at 10,000 g for 5 minutes to pellet the precipitated proteins. The supernatant (200 μL) was carefully removed, spiked with peptide 1018 (VRLIVAVRIWRR; SEQ ID NO. 3) at 1 μg/mL as the internal standard, and stored at −20° C. prior to liquid chromatography-mass spectrometry (LC/MS) analysis. Peptide 1018 is a synthetic peptide derived from bactenecin, a bovine neutrophil host defense peptide. (Mansour, S. C., et al. (2015) J. Pept. Sci., 21, 323-329. doi: 10.1002/psc.2708. The peptide sequence was synthesized by Genemed Synthesis Inc. (San Antonio, Tex.).
Liquid chromatography was performed on a Shimadzu HPLC system (Shimadzu Scientific Instruments, Inc., Columbia, Md.). A 10-μl aliquot of the sample was injected into an Agilent ZORBAX Eclipse XDB 80 Å C18 (2.1×50 mm, 5 μm) column (Agilent, Santa Clara, Calif.) held at 40° C. Mass spectrometric analysis was carried out on an AB Sciex API 4000 mass spectrometer (AB Sciex, Framingham, Mass.) with an electrospray ionization (ESI) interface and triple quadrupole mass analyzer. The peak areas of Kn2-7 and dKn2-7 on the LC-MS chromatograms were standardized to the peak area for peptide 1018.

C. albicans = test system: C. albicans; parameters: unit not given beside the values; conditions: compared with dKn2-7; cited from earlier work

| Compound | concentration at which a significant increase in hemolysis starts (human red blood cells) [µg/mL] | remaining at 24 h, 50 μg/mL [1] [%] | reduction of peptide amount [1] | MIC against C. albicans, times higher than dKn2-7 (C. albicans) [×] |
| --- | --- | --- | --- | --- |
| CC[C@@H](C)[C@@H](NC(=O)[C@H](N)Cc1ccccc1)C(=O)NCC(=O)N[C@H](C)C(=O)N[C@@H](C(=O)N[C@H](C)C(=O)N[C@H](CCCNC(=N)N)C(=O)N[C@H](CC(C)C)C(=O)N[C@H](CC(C)C)C(=O)N[C@H](CO)C(=O)N[C@H](CCCCN)C(=O)N[C@@H](C(=O)N[C@H](Cc1ccccc1)C(=O)O)[C@H](C)CC)[C@H](C)CC [dBmKn2] (H-[dF][dI]G[dA][dI][dA][dR][dL][dL][dS][dK][dI][dF]-OH; N-terminus and C-terminus assumed) | 100 | – | – | – |
| CC[C@@H](C)[C@@H](NC(=O)[C@H](N)Cc1ccccc1)C(=O)N[C@H](CCCCN)C(=O)N[C@H](CCCNC(=N)N)C(=O)N[C@@H](C(=O)N[C@H](C)C(=O)N[C@H](CCCNC(=N)N)C(=O)N[C@H](CC(C)C)C(=O)N[C@H](CC(C)C)C(=O)N[C@H](CCCNC(=N)N)C(=O)N[C@H](CCCCN)C(=O)N[C@@H](C(=O)N[C@H](Cc1ccccc1)C(=O)O)[C@H](C)CC)[C@H](C)CC [dKn2-7] (H-[dF][dI][dK][dR][dI][dA][dR][dL][dL][dR][dK][dI][dF]-OH; N-terminus and C-terminus assumed) | 200 | ~43 | about 20% | – |
| CC[C@H](C)[C@H](NC(=O)CN)C(=O)NCC(=O)N[C@@H](C)C(=O)N[C@H](C(=O)N[C@@H](CC(C)C)C(=O)N[C@@H](CCCCN)C(=O)N[C@H](C(=O)N[C@@H](CC(C)C)C(=O)N[C@H](C(=O)N[C@H](C(=O)NCC(=O)N[C@@H](CC(C)C)C(=O)N1CCC[C@H]1C(=O)N[C@@H](C)C(=O)N[C@@H](CC(C)C)C(=O)N[C@H](C(=O)N[C@@H](CO)C(=O)N[C@@H](Cc1c[nH]c2ccccc12)C(=O)N[C@H](C(=O)N[C@@H](CCCCN)C(=O)N[C@@H](CCCNC(=N)N)C(=O)N[C@@H](CCCCN)C(=O)N[C@@H](CCCNC(=N)N)C(=O)N[C@@H](CCC(N)=O)C(=O)N[C@@H](CCC(N)=O)C(N)=O)[C@@H](C)CC)[C@@H](C)CC)[C@@H](C)O)[C@@H](C)O)C(C)C)C(C)C [melittin, reference compound] | ≥ 3.125 | – | – | – |
| FIGAIARLLSKIF [BmKn2, FIGAIARLLSKIF (SEQ ID NO. 1)] | 100 | – | – | – |
| FIKRIARLLRKIF [Kn2-7, FIKRIARLLRKIF (SEQ ID NO. 2)] | 200 | ~9 | about 20% | – |
| LL-37: well-studied LL-37 peptide | – | – | – | ~3 |
